Reference: EP1510220B1 (priority 1993, dated 1994)
Where two headings read alike, the source gives them in different places. Ends that are not written are not given here.

What was measured:
Quiescent ED cells = experiment: Stimulation of DNA synthesis by mitogens in quiescent ED cells; type: cell-based, human; settings: [3H]thymidine 16-40 h after stimulation, vs serum-free control; 20% FCS
Procedure: Quiescent ED cells were exposed to various mitogens, and stimulation of DNA synthesis was determined by [^3H]thymidine incorporation 16-40 h after stimulation. DNA synthesis was stimulated by 20% FCS by 25±6 fold, compared to control cells that remained in serum-free D-MEM throughout. PDGF-BB stimulated ≈3.0 fold, but PDGF-AA stimulated only 2.0 fold.

Quiescent EX cells = experiment: Stimulation of DNA synthesis by mitogens in quiescent EX cells; type: cell-based, human; settings: [3H]thymidine 16-32 h after stimulation, vs serum-free control; 20% FCS, IGF-1 25 ng/ml, EGF and bFGF 100 ng/ml, TGF-beta 10 ng/ml, AII and ET-1 100 nM
Procedure: Quiescent EX cells were then exposed to various mitogens, and stimulation of DNA synthesis was determined by incorporation of [^3H]thymidine 16-32 h after stimulation. DNA synthesis was stimulated by 20% FCS by 8.0±1.5 fold, compared to control cells that remained in serum-free D-MEM throughout. PDGF-BB and PDGF-AA caused a ≈ 3.0 fold stimulation of DNA synthesis. Insulin-like growth factor (IGF-1; 25 ng/ml) provided a 1.2 fold stimulation.

[1] = tested on: B054 cells (baboon smooth muscle cells); experiment: cells; type: cell-based; settings: for minimal effective concentration: Papio anubis
[2] = tested on: Vascular smooth muscle cells
[3] = tested on: B054 cells (baboon smooth muscle cells); experiment: cells; type: cell-based; settings: Papio anubis, read-out: minimum effective dose (MED), protein synthesis assay

Question: With `CC[C@H](C)[C@H](NC(=O)[C@H](Cc1ccc(O)cc1)NC(=O)[C@@H](NC(=O)[C@H](CCCNC(=N)N)NC(=O)[C@@H](N)CC(=O)O)C(C)C)C(=O)N[C@@H](Cc1cnc[nH]1)C(=O)N1CCC[C@H]1C(=O)N[C@@H](Cc1ccccc1)C(=O)O` [AII, angiotensin II] as the compound, how does the “stimulation of DNA synthesis” value (Quiescent ED cells) read?
Answer: did not stimulate DNA synthesis

Question: And the “stimulation of DNA synthesis” value (Quiescent EX cells)?
Answer: did not significantly stimulate DNA synthesis

Question: Which “minimum effective dose (MED), DNA synthesis assay” value [1] does the source give for `CC(=O)O[C@@H]1/C=C\[C@@](C)(O)C(=O)[C@@H](C)C/C=C\[C@H]2[C@H](O)C(C)=C(C)[C@H]3C(Cc4ccccc4)NC(=O)[C@]132` (stereo partly shown) [cytochalasin C] here?
Answer: 0.01 µg/mL

Question: How did the minimal effective concentration ([1]; 5 min, read-out: minimum effective dose (MED), DNA assay) turn out when `CN[C@@H]1C[C@H]2O[C@@](C)([C@@H]1OC)n1c3ccccc3c3c4c(c5c6ccccc6n2c5c31)C(=O)NC4` [staurosporin] was run?
Answer: 0.001 µg/mL

Question: And the minimal effective concentration ([1]; 24 h, read-out: minimum effective dose (MED), DNA synthesis assay)?
Answer: 0.001 µg/mL

Question: What about the cytotoxicity grade [2] of the same compound?
Answer: 2

Question: What about the minimal effective concentration ([3]; 5 min) of the same compound?
Answer: 0.1 µg/mL

Question: What about the minimal effective concentration ([3]; 24 h) of the same compound?
Answer: 0.01 µg/mL

Question: How did the “stimulation of DNA synthesis” value (Quiescent ED cells) turn out when “endothelin-1 (CSCSSLMDKECVYFCHLDIIW; ends and bridges not checked; cysteine pairing not given here; UniProt P05305 53-73, looked up) [ET-1]” was run?
Answer: did not stimulate DNA synthesis

Question: And the “stimulation of DNA synthesis” value (Quiescent EX cells)?
Answer: did not significantly stimulate DNA synthesis
